How the values were obtained:
A1 adenosine receptor = target: T1, A1 adenosine receptor (Homo sapiens, UniProt P30542); experiment: Radioligand binding assay
T1 construct: MDS Pharma Services Taiwan
T1 sequence (P30542 1-326): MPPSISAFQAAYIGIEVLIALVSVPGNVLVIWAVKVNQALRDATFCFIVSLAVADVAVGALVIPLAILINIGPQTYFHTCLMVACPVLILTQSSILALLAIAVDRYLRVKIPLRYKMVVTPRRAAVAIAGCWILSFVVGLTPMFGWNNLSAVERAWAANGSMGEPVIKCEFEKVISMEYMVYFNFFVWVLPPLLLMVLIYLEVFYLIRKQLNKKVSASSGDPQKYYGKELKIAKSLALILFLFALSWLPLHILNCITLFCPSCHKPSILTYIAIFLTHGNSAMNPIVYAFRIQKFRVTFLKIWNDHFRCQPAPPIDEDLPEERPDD

Adrenergic α 2C = target: T2, Adrenergic α 2C (Homo sapiens, UniProt P18825); experiment: Radioligand binding panel (Table S1); conditions: 10 μM T1-11, n 2
T2 construct: purchased MDS Pharma Services Taiwan
T2 sequence (P18825 whole entry): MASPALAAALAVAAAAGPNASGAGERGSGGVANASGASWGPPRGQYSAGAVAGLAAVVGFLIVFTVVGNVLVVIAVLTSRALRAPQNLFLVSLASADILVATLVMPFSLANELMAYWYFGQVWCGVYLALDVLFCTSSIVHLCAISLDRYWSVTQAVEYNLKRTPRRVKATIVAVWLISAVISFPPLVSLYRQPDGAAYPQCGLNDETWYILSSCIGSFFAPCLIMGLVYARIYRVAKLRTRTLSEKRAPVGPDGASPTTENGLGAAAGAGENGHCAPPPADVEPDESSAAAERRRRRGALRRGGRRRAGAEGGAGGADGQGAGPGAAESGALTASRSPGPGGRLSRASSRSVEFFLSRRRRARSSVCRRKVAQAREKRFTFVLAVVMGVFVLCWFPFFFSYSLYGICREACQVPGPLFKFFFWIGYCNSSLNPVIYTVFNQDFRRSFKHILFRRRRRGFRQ

Anaphylatoxin C5a = target: T3, Anaphylatoxin C5a (Homo sapiens, UniProt P21730); experiment: Radioligand binding panel (Table S1); conditions: 10 μM T1-11, n 2
T3 construct: purchased MDS Pharma Services Taiwan
T3 sequence (P21730 whole entry): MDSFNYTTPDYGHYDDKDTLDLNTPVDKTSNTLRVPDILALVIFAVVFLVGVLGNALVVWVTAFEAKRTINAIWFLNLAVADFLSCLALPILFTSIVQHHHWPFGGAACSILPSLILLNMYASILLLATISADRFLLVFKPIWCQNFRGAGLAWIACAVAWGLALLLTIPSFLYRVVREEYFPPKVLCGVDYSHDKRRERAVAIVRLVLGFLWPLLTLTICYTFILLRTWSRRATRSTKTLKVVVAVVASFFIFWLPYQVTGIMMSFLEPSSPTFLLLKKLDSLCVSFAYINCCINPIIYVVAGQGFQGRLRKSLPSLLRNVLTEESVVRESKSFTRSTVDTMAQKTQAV

[1] = target: T4, Calcitonin Gene-Related, Peptide CGRP1 (Homo sapiens, UniProt O60894+Q16602); experiment: Radioligand binding panel (Table S1); conditions: 10 μM T1-11, n 2
T4 construct: purchased MDS Pharma Services Taiwan

Calcium Channel N-Type = target: T5, Calcium Channel N-Type (Rattus norvegicus, UniProt Q02294); experiment: Radioligand binding panel (Table S1); conditions: 10 μM T1-11, n 2
T5 construct: purchased MDS Pharma Services Taiwan

Chemokine CXCR2 (IL-8RB) = target: T6, Chemokine CXCR2 (IL-8RB) (Homo sapiens, UniProt P25025); experiment: Radioligand binding panel (Table S1); conditions: 10 μM T1-11, n 2
T6 construct: purchased MDS Pharma Services Taiwan
T6 sequence (P25025 whole entry): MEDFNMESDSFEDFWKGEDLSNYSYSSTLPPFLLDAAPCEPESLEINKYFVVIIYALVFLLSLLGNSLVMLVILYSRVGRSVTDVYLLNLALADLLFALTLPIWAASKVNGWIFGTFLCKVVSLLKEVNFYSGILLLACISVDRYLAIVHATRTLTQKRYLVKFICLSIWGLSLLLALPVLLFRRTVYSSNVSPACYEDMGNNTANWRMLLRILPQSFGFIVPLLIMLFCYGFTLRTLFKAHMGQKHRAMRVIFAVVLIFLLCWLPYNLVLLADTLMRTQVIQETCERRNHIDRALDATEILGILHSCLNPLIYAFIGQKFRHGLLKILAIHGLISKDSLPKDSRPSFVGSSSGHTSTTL

Dopamine D3 = target: T7, Dopamine D3 (Homo sapiens, UniProt P35462); experiment: Radioligand binding panel (Table S1); conditions: 10 μM T1-11, n 2
T7 construct: purchased MDS Pharma Services Taiwan
T7 sequence (P35462 whole entry): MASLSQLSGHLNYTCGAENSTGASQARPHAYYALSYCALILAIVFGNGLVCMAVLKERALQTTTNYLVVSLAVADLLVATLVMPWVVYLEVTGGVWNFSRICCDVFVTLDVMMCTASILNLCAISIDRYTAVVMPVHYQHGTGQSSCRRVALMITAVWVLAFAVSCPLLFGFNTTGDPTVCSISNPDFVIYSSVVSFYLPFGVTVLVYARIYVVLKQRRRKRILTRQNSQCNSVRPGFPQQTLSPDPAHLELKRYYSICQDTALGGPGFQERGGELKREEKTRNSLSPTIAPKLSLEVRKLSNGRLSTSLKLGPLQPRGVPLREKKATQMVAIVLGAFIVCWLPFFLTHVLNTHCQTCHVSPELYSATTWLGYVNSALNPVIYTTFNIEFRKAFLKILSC

Dopamine D4.4 = target: T8, Dopamine D4.4 (Homo sapiens, UniProt P21917); experiment: Radioligand binding panel (Table S1); conditions: 10 μM T1-11, n 2
T8 construct: purchased MDS Pharma Services Taiwan
T8 sequence (P21917 whole entry): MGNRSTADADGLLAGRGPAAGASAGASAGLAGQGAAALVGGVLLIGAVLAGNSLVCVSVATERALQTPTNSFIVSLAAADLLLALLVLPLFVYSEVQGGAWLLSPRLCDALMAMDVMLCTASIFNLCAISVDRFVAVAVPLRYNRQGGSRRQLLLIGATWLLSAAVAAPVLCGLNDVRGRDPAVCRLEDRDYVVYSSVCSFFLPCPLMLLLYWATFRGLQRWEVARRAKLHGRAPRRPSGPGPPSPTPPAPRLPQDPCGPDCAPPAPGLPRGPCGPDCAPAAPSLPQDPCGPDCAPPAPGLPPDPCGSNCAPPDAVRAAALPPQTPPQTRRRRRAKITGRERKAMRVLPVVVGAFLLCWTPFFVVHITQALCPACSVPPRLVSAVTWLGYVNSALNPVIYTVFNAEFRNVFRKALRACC

Estrogen ERβ = target: T9, Estrogen ERβ (Homo sapiens, UniProt Q92731); experiment: Radioligand binding panel (Table S1); conditions: 10 μM T1-11, n 2
T9 construct: purchased MDS Pharma Services Taiwan
T9 sequence (Q92731 whole entry): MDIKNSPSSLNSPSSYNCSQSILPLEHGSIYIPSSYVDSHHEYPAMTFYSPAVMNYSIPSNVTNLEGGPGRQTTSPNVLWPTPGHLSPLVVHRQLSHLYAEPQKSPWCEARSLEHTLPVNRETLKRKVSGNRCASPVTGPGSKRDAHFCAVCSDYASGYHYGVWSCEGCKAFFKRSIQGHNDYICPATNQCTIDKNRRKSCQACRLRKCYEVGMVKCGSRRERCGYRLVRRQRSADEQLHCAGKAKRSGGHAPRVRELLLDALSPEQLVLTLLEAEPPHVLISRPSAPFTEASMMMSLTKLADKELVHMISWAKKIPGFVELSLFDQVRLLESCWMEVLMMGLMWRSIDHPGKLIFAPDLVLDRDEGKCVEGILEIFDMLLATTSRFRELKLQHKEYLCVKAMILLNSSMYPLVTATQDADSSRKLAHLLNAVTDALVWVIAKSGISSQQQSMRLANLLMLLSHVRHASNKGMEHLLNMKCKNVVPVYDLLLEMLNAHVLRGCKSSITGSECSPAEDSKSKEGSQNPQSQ

GABAB1B = target: T10, GABAB1B (Homo sapiens, UniProt Q9UBS5); experiment: Radioligand binding panel (Table S1); conditions: 10 μM T1-11, n 2
T10 construct: purchased MDS Pharma Services Taiwan

Melatonin MT2 = target: T11, Melatonin MT2 (Homo sapiens, UniProt P49286); experiment: Radioligand binding panel (Table S1); conditions: 10 μM T1-11, n 2
T11 construct: purchased MDS Pharma Services Taiwan
T11 sequence (P49286 whole entry): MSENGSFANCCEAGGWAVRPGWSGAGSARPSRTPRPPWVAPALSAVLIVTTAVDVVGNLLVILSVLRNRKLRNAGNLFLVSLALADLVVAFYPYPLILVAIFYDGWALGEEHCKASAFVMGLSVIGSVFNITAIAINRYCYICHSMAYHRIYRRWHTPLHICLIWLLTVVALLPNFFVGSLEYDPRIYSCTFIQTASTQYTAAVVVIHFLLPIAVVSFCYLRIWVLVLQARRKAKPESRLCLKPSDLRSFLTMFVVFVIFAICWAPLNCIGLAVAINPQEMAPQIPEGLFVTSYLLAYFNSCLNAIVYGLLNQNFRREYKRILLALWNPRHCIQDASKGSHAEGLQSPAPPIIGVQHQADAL

[2] = test system: Neurotensin, Non-Selective; experiment: Radioligand binding panel (Table S1); design: species or system mouse; conditions: 10 μM T1-11, n 2
Opiate μ (OP3, MOP) = target: T12, Opiate μ (OP3, MOP) (Homo sapiens, UniProt P35372); experiment: Radioligand binding panel (Table S1); conditions: 10 μM T1-11, n 2
T12 construct: purchased MDS Pharma Services Taiwan
T12 sequence (P35372 whole entry): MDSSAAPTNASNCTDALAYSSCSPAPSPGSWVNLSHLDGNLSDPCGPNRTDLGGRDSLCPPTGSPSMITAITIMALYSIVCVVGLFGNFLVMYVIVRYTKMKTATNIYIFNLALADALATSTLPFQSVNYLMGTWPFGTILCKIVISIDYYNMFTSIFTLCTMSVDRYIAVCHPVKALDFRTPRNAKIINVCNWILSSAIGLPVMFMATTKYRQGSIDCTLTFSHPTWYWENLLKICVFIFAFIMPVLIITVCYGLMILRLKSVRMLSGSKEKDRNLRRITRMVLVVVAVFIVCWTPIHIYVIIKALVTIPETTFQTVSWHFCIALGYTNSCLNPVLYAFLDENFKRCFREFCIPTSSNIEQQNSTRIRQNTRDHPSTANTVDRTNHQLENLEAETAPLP

Orexin OX 2 = target: T13, Orexin OX 2 (Homo sapiens, UniProt O43614); experiment: Radioligand binding panel (Table S1); conditions: 10 μM T1-11, n 2
T13 construct: purchased MDS Pharma Services Taiwan
T13 sequence (O43614 whole entry): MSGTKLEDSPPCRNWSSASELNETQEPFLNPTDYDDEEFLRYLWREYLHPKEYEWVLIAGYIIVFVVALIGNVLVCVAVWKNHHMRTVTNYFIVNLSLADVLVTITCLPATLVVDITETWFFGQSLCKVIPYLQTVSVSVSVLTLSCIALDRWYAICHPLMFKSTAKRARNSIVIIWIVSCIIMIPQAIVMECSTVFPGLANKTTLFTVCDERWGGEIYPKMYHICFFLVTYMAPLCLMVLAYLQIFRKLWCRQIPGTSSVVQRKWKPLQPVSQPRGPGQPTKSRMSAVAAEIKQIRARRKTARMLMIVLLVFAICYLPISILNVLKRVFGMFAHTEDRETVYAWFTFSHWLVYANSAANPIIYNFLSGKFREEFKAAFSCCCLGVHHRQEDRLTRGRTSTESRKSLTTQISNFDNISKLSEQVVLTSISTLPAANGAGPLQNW

Purinergic P 2Y = experiment: Radioligand binding panel (Table S1); design: species or system rat; conditions: 10 μM T1-11, n 2
Rolipram = experiment: Radioligand binding panel (Table S1); design: species or system rat; conditions: 10 μM T1-11, n 2
[3] = target: T14, Serotonin (5-Hydroxytryptamine) 5-HT4 (Cavia porcellus, UniProt O70528); experiment: Radioligand binding panel (Table S1); design: species or system guinea pig; conditions: 10 μM T1-11, n 2
T14 construct: purchased MDS Pharma Services Taiwan
T14 sequence (O70528 whole entry): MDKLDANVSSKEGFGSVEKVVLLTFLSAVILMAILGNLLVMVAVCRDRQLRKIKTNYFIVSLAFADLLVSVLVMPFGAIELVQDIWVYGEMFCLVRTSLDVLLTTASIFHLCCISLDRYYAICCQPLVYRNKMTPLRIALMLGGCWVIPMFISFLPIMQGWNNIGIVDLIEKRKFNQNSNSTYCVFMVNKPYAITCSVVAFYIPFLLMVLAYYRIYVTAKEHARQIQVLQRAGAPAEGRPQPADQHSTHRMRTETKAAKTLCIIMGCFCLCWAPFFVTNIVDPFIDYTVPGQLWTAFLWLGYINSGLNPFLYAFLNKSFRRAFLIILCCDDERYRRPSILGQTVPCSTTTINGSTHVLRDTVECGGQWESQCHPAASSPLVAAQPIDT

Sigma σ1 = target: T15, Sigma σ1 (Homo sapiens, UniProt Q99720); experiment: Radioligand binding panel (Table S1); conditions: 10 μM T1-11, n 2
T15 construct: purchased MDS Pharma Services Taiwan
T15 sequence (Q99720 whole entry): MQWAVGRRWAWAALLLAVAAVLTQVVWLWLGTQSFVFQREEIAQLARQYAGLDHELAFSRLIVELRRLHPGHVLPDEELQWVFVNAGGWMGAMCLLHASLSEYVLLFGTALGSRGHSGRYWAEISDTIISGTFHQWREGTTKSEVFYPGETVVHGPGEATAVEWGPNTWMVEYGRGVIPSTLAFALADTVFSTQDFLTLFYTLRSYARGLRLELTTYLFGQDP

[4] = test system: Tumor Necrosis Factor (TNF), Non-Selective; experiment: Radioligand binding panel (Table S1); design: species or system human; conditions: 10 μM T1-11, n 2
Urotensin II = target: T16, Urotensin II (Homo sapiens, UniProt Q9UKP6); experiment: Radioligand binding panel (Table S1); conditions: 10 μM T1-11, n 2
T16 construct: purchased MDS Pharma Services Taiwan
T16 sequence (Q9UKP6 whole entry): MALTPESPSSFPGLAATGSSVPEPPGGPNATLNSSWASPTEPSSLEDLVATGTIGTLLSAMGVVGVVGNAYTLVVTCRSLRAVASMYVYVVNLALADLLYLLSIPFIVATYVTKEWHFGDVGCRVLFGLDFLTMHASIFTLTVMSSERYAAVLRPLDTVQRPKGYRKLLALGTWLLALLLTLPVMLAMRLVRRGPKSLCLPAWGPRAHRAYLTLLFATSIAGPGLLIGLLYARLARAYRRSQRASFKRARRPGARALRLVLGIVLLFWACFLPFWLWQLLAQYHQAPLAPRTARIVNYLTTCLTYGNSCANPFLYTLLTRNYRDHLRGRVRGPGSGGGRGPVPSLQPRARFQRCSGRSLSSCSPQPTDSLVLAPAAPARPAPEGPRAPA

Vanilloid = target: T17, Vanilloid (Rattus norvegicus, UniProt O35433); experiment: Radioligand binding panel (Table S1); conditions: 10 μM T1-11, n 2
T17 construct: purchased MDS Pharma Services Taiwan

R6/2 mice = experiment: Rotarod performance of R6/2 mice; assay type: in vivo
From the text: Male R6/2 mice and littermate controls were originally obtained from Jackson Laboratories (Bar Harbor, ME, USA), and mated to female control mice (B6CBAFI/J). Offspring were identified by a polymerase chain reaction (PCR) genotyping technique of genomic DNA extracted from tail tissues using primers located in the transgene (5′-[…]-3′ and 5′-[…]- AGGAG-3′) to ensure that the number of CAG repeats remained approximately 150. In total, 211 R6/2 transgenic mice were used in this study. Animals were housed at the Institute of Biomedical Sciences Animal Care Facility under a 12-h light/dark cycle. Body weights of mice were recorded once daily. Animal experiments were performed under protocols approved by the Academia Sinica Institutional Animal Care and Utilization Committee, Taipei, Taiwan.
Motor coordination was assessed using a rotarod apparatus (UGO BASILE, Comerio, Italy) at a constant speed (12 rpm) over the period of 2 min [75]. All mice were trained for 2 days at the age of 4 weeks to allow them to become acquainted with the rotarod apparatus. Animals were then tested three times per week from the ages of 4∼12 weeks. For each test, animals were placed in the apparatus before initiation of rotation. Latency to falling was automatically recorded. Each mouse was given three trials for a maximum of 2 min for each trial.

mutant Htt aggregates = experiment: Striatal Htt aggregates (filter retardation assay, immunofluorescence); assay type: in vivo; conditions: R6/2 mice, 12 weeks old, 0.05 mg/ml in drinking water
Protocol: SDS-insoluble mutant Htt aggregates were detected and quantified as described. A filter retardation assay was performed as described previously. Blots were blocked with 5% skim milk in phosphate-buffered saline (PBS) and incubated with an anti-Htt antibody (EM48, 1∶500; Chemicon International, Temecula, CA, USA) at 4°C overnight followed by the corresponding secondary antibody for 1 h at room temperature. Immunoreactive bands were detected by enhanced chemiluminescence (Pierce) and recorded using Kodak XAR-5 film.
Coronal serial sections (20 µm) containing the striatum (interaural 5.34 mm/bregma 1.54 mm to interaural 3.7 mm/bregma −0.1 mm) were immunohistochemically stained as described previously. Brain sections were blocked with normal goat serum and incubated overnight with an anti-Htt antibody (EM48, 1∶500) at 4°C, followed by a 2 h-incubation with a goat anti-mouse IgG conjugated to Alexa Fluor® 568 at room temperature. The nuclei were stained with Hoechst 33258. The patterns of immunostaining were analyzed with a laser confocal microscope (LSM510, Carl Zeiss MicroImaging Inc, Germany). Five different brain sections of each animal were analyzed. At least 2000 cells from each animal were used to quantify the sizes of mHtt aggregates using ImageJ software (http://rsbweb.nih.gov/ij/; Research Services Branch of the National Institute of Mental Health, Bethesda, MD, USA).

[5] = n.s. = not significant, no significant binding at 10 µM

## OC[C@H]1O[C@@H](n2cnc3c(NCc4ccc(O)cc4)ncnc32)[C@H](O)[C@@H]1O [T1-11, N ^6-(4-hydroxybenzyl)adenine riboside]
A1 adenosine receptor; 10 μM T1-11, n 2
  inhibition at 10 µM: 23%
A1 adenosine receptor; [5]
  IC50: n.s.
  Ki: n.s.
Adrenergic α 2C
  inhibition at 10 µM: 10%
Anaphylatoxin C5a
  inhibition at 10 µM: 2%
[1]
  inhibition at 10 µM: 6%
Calcium Channel N-Type
  inhibition at 10 µM: 1%
Chemokine CXCR2 (IL-8RB)
  inhibition at 10 µM: 0%
Dopamine D3
  inhibition at 10 µM: -7%
Dopamine D4.4
  inhibition at 10 µM: 8%
Estrogen ERβ
  inhibition at 10 µM: 40%
GABAB1B
  inhibition at 10 µM: -5%
Melatonin MT2
  inhibition at 10 µM: -20%
[2]
  % Inhibition: 15%
Opiate μ (OP3, MOP)
  inhibition at 10 µM: 5%
Orexin OX 2
  inhibition at 10 µM: -7%
Purinergic P 2Y
  % Inhibition: 17%
Rolipram
  % Inhibition: -6%
[3]
  inhibition at 10 µM: 1%
Sigma σ1
  inhibition at 10 µM: 7%
[4]
  % Inhibition: -2%
Urotensin II
  inhibition at 10 µM: 6%
Vanilloid
  inhibition at 10 µM: 8%
R6/2 mice; 0.05 mg/ml in drinking water from the age of 7 weeks
  Motor coordination (rotarod performance): counteracted the progressive deterioration in motor coordination
R6/2 mice; subcutaneous Alzet minipump, 125 µg/mouse/day
  Motor deterioration (rotarod performance): improved motor deterioration
Mutant Htt aggregates
  Formation of striatal Htt aggregates: markedly reduced the formation of striatal Htt aggregates
